5 compounds from ChEMBL document CHEMBL1949595, “Fluorinated ΔF508-CFTR correctors and potentiators for PET imaging” (Bioorg Med Chem Lett, 2012) can be followed below.

The structures appear in SMILES notation.

By EC50 is commonly meant the midpoint of the concentration-response curve.

Assay [1] concerns the target Cystic fibrosis transmembrane conductance regulator (Homo sapiens, UniProt P13569, F508DEL). In words: Corrector activity at human CFTR delta F508 mutant expressed in rat FRT cells coexpressing fluorescent protein YFP-H148Q/1152L by fluorescence assay. Type of assay: cell-based.
The nature of assay [2]: Potentiation activity at human CFTR delta F508 mutant-mediated iodine flux expressed in rat FRT cells coexpressing fluorescent protein YFP-H148Q/1152L by fluorescence assay. Type of assay: cell-based.

Cystic fibrosis transmembrane conductance regulator, sequence (P13569 as listed by the source): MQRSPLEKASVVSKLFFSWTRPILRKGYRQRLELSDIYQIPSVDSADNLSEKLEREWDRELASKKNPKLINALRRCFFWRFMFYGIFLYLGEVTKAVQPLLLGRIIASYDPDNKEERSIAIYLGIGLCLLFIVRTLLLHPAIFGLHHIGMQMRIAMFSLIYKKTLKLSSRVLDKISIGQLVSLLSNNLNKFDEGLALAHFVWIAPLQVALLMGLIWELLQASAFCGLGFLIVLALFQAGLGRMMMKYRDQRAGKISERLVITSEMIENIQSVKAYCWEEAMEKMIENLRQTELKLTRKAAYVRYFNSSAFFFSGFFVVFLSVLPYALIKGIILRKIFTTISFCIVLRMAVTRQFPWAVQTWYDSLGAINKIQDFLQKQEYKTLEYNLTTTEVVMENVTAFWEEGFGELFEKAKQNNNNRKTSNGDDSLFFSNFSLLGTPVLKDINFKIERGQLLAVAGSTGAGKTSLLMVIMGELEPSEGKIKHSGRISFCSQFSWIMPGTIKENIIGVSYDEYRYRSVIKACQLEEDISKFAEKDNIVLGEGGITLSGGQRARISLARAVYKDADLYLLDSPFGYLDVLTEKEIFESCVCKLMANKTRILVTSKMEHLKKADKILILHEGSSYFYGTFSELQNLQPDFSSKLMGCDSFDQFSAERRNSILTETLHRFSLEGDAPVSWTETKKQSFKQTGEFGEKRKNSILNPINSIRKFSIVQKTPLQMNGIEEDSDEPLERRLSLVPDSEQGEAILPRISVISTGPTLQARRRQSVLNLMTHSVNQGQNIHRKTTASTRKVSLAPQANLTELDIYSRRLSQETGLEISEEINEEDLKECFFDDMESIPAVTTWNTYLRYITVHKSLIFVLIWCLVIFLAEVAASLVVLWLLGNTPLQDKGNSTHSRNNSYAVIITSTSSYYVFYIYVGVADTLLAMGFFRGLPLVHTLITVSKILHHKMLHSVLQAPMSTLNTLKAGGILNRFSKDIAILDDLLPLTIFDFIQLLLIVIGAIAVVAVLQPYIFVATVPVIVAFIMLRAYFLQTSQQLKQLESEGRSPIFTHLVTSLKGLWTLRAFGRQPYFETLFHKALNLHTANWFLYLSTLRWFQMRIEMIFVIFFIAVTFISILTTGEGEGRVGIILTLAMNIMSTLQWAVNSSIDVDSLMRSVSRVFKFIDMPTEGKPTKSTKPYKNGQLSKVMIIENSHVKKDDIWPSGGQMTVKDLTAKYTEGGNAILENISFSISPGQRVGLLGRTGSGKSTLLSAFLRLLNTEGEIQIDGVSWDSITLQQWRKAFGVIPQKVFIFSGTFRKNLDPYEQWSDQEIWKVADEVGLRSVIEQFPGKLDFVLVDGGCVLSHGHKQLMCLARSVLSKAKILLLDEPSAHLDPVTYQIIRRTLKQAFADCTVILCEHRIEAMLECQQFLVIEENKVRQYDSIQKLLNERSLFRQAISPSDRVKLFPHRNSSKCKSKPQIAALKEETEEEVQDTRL

Take `Cc1nc(NC(=O)c2ccc([19F])cc2)sc1-c1csc(Nc2cc(N(C)C)ccc2Cl)n1`: in assay [1], the midpoint of the response, the EC50, lay at 1400 nM.

Regarding `COc1ccc(Cl)cc1Nc1nc(-c2sc(NC(=O)c3ccc([19F])cc3)nc2C)cs1`, the EC50 in assay [1] turned out to be 1400 nM.

As for `CN(C(=O)Cc1c[nH]c2ccccc12)[C@H](C(=O)Nc1ccc([19F])cc1)c1ccccc1`, the EC50 in assay [2] was determined as 90 nM.

In the case of `CN(C(=O)Cc1c[nH]c2ccccc12)[C@H](C(=O)Nc1ccc(-n2cc(CCC[19F])nn2)cc1)c1ccccc1`, the EC50 in assay [2] was 1100 nM. Consider `COc1ccc(Cl)cc1Nc1nc(-c2sc(NC(=O)c3ccccc3)nc2C)cs1`, for which a half-maximal response in assay [1] (EC50) required 2300 nM.
